Measured values: ChEMBL document CHEMBL3120081, “Imidazopyridazine hepatitis C virus polymerase inhibitors. Structure-activity relationship studies and the discovery of a novel, traceless prodrug mechanism” (J Med Chem, 2014)
Converted amounts (≈) assume the structure as drawn.

Tests used:
Hepatitis C virus [1] = assay: Antiviral activity against Hepatitis C virus genotype 1a infected in human HuH7 cells after 48 hrs by luciferase reporter gene assay; format: functional, organism-based, Hepacivirus hominis; settings: subtype 1a, Huh-7, 48 h
Hepatitis C virus [2] = assay: Antiviral activity against Hepatitis C virus genotype 1b infected in human HuH7 cells after 48 hrs by luciferase reporter gene assay; format: functional, organism-based, Hepacivirus hominis; settings: Huh-7, 48 h
[3] = Stability of the compound in water at 1 uM at pH 7 up to 60 mins by LC/MS/MS analysis; format: physicochemical; settings: buffer, pH 7, 1 h
Hepatocyte = assay: Stability in rat hepatocytes at 0.5 uM by LC/MS/MS analysis; format: ADME, cell-based
[4] = Solubility of the compound in phosphate buffered saline at pH 7.4 after 1 hr by chemiluminescence nitrogen detection assay; format: physicochemical
[5] = Stability in rat microsomes at 0.5 uM by LC/MS/MS analysis; format: ADME, Microsome
[6] = Stability of the compound in water at 1 uM at pH 2 up to 60 mins by LC/MS/MS analysis; format: physicochemical; settings: buffer, pH 2, 1 h
[7] = Stability of the compound in blood (unknown origin) at 1 uM up to 60 mins by LC/MS/MS analysis; format: ADME, tissue-based; settings: 1 h
[8] = Oral bioavailability in beagle dog at 5 mg/kg by LC/MS/MS analysis; format: ADME, organism-based, Canis lupus familiaris; settings: in vivo
[9] = Oral bioavailability in CD rat at 5 mg/kg by LC/MS/MS analysis; format: ADME, organism-based; settings: in vivo
[10] = AUC in CD rat at 30 mg/kg by LC/MS/MS analysis; format: ADME, organism-based; parameters: dose 30 mg/kg; settings: plasma
[11] = Clearance in CD rat at 0.5 mg/kg, iv by LC/MS/MS analysis; format: ADME, organism-based; parameters: dose 0.5 mg/kg, route intravenous; settings: in vivo
[12] = Cmax in CD rat at 5 mg/kg by LC/MS/MS analysis; format: ADME, organism-based; parameters: dose 5 mg/kg; settings: in vivo
[13] = Solubility of the compound in neutral aqueous media at pH 6.8; format: physicochemical
[14] = AUC in CD rat at 300 mg/kg by LC/MS/MS analysis; format: ADME, organism-based; parameters: dose 300 mg/kg; settings: plasma
[15] = molecular target: Voltage-gated inwardly rectifying potassium channel KCNH2 (Homo sapiens, UniProt Q12809); assay: Inhibition of human ERG by patch-clamp technique
Voltage-gated inwardly rectifying potassium channel KCNH2, sequence (Q12809 whole entry): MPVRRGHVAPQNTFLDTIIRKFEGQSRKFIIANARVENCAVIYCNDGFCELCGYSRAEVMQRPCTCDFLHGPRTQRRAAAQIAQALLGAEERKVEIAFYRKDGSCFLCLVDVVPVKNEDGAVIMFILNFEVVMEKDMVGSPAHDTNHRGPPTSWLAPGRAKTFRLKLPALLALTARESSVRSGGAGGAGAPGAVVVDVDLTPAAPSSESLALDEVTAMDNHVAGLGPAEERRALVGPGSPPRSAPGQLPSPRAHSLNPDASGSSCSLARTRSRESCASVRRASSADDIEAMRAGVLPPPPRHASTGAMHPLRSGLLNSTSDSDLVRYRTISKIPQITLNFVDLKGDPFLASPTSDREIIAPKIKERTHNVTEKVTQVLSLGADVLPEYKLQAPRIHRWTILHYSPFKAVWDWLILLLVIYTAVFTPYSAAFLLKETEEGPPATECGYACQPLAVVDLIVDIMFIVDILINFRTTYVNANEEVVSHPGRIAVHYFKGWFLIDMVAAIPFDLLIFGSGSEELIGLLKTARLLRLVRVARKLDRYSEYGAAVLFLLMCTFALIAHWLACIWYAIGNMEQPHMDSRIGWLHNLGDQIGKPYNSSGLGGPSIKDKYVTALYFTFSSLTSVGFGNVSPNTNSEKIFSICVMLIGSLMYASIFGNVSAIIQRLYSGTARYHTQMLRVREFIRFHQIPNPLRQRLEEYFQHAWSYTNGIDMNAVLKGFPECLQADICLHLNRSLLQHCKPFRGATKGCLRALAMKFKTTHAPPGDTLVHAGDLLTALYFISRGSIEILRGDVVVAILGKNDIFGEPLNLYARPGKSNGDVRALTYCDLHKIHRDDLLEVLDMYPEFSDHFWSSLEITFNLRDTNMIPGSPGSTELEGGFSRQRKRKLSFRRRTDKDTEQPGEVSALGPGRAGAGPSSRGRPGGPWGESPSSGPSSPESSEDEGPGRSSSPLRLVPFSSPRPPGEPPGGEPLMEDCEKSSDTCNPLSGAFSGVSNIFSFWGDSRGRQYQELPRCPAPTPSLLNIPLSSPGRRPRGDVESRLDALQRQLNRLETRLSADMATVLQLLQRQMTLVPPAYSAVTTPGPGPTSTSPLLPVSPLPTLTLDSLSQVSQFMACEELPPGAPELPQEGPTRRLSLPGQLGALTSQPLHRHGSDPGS

[16] = Cmax in CD rat at 100 mg/kg by LC/MS/MS analysis; format: ADME, organism-based; parameters: dose 100 mg/kg; settings: in vivo
[17] = Cmax in CD rat at 10 mg/kg by LC/MS/MS analysis; format: ADME, organism-based; parameters: dose 10 mg/kg; settings: in vivo
[18] = Cmax in CD rat at 300 mg/kg by LC/MS/MS analysis; format: ADME, organism-based; parameters: dose 300 mg/kg; settings: in vivo
[19] = Volume of distribution in CD rat at 0.5 mg/kg, iv by LC/MS/MS analysis; format: ADME, organism-based; parameters: dose 0.5 mg/kg, route intravenous; settings: in vivo
[20] = AUC in CD rat at 100 mg/kg by LC/MS/MS analysis; format: ADME, organism-based; parameters: dose 100 mg/kg; settings: plasma
[21] = Half life in CD rat at 0.5 mg/kg, iv by LC/MS/MS analysis; format: ADME, organism-based; parameters: dose 0.5 mg/kg, route intravenous; settings: in vivo
[22] = AUC in CD rat at 5 mg/kg by LC/MS/MS analysis; format: ADME, organism-based; parameters: dose 5 mg/kg; settings: plasma
[23] = AUC in CD rat at 1 mg/kg, po by LC/MS/MS analysis; format: ADME, organism-based; parameters: dose 1 mg/kg, route oral; settings: plasma
[24] = Intrinsic clearance in CD rat microsomes; format: ADME, Microsome
[25] = Cmax in CD rat at 30 mg/kg by LC/MS/MS analysis; format: ADME, organism-based; parameters: dose 30 mg/kg; settings: in vivo
[26] = Oral bioavailability in CD rat at 1 mg/kg by LC/MS/MS analysis; format: ADME, organism-based; settings: in vivo
[27] = AUC in CD rat at 10 mg/kg by LC/MS/MS analysis; format: ADME, organism-based; parameters: dose 10 mg/kg; settings: plasma

Structure (SMILES)	EC50 (Hepatitis C virus [1])	EC50 (Hepatitis C virus [2])	other results
COc1ccc(-c2cc(Cn3cc4nc(-c5cccc(F)c5F)nc-4cn3)on2)cc1	300 nM	90 nM	–
Fc1ccccc1-c1nc2cnn(Cc3cc(-c4ccc(C(F)(F)F)cc4C(F)(F)F)no3)cc-2n1	3700 nM	110 nM	–
Fc1cccc(F)c1-c1nc2cnn(Cc3cc(-c4ccc(C(F)(F)F)cc4C(F)(F)F)no3)cc-2n1	–	5000 nM	–
FC(F)(F)c1ccc(-c2cc(Cn3cc4nc(-c5cccs5)nc-4cn3)on2)c(C(F)(F)F)c1	–	1750 nM	–
CCCOc1ccc(-c2cc(Cn3cc4nc(-c5cccc(F)c5F)nc-4cn3)no2)cc1	110 nM	40 nM	–
Fc1cccc(-c2nc3cnn(Cc4cn(-c5ccc(C(F)(F)F)cc5C(F)(F)F)cn4)cc-3n2)c1F	> 50000 nM	7000 nM	–
Fc1cccc(-c2nc3cnn(CCCc4ccc(C(F)(F)F)cc4C(F)(F)F)cc-3n2)c1F	16000 nM	52000 nM	–
Fc1cccc(-c2nc3cnn(Cc4ccc(-c5ccc(C(F)(F)F)cc5C(F)(F)F)cn4)cc-3n2)c1F	300 nM	40 nM	–
CCCOc1ccc(-c2cnc(Cn3cc4nc(-c5cccc(F)c5F)nc-4cn3)cn2)c(C(F)(F)F)c1	60 nM	30 nM	–
CC(c1cc(-c2ccc(C(F)(F)F)cc2C(F)(F)F)no1)n1cc2nc(-c3cccc(F)c3F)nc-2cn1 (racemic)	900 nM	80 nM	–

Now those with a lower EC50 (Hepatitis C virus [2]), led by results:

EC50 (Hepatitis C virus [1])	EC50 (Hepatitis C virus [2])	Structure (SMILES)	other results
21 nM	3 nM	CCCOc1ccc(-c2cc(Cn3cc4nc(-c5cccc(F)c5F)nc-4cn3)on2)c(C(F)(F)F)c1	Stability [3]: Stable; Stability (Hepatocyte): Stable; solubility kinetic at 1 h [4]: 1.6 µM (≈ 0.825 µg/mL); Stability [5]: Stable; Stability [6]: Stable; Stability [7]: Stable; bioavailability [8]: 12%; bioavailability [9]: 33%
120 nM	18 nM	Fc1cccc(-c2nc3cnn(Cc4ccc(-c5ccc(C(F)(F)F)cc5C(F)(F)F)cc4)cc-3n2)c1F	–
160 nM	16 nM	Fc1cccc(-c2nc3cnn(Cc4ccc(-c5ccc(C(F)(F)F)cc5C(F)(F)F)nc4)cc-3n2)c1F	AUC [10]: 24000 ng·h/mL; clearance [11]: 9 mL/min/kg; Cmax [12]: 1100 ng/mL; solubility [13]: 9 µg/mL (≈ 16.8 µM); AUC [14]: 280000 ng·h/mL; EC50 [15]: 7940 nM; Cmax [16]: 7600 ng/mL; Cmax [17]: 2700 ng/mL; Cmax [18]: 27300 ng/mL; Vd [19]: 2.04 L/kg; AUC [20]: 69000 ng·h/mL; half-life [21]: 3.14 h; AUC [22]: 8000 ng·h/mL; AUC [23]: 1500 ng·h/mL; CLint scaled [24]: 22 mL/min/kg; Cmax [25]: 2800 ng/mL; bioavailability [26]: 78%; AUC [27]: 24000 ng·h/mL
18 nM	7 nM	CCCOc1ccc(-c2ccc(Cn3cc4nc(-c5cccc(F)c5F)nc-4cn3)nn2)c(C(F)(F)F)c1	–
–	5 nM	Fc1ccccc1-c1nc2ccn(Cc3ccc(-c4ccc(C(F)(F)F)cc4C(F)(F)F)nn3)cc-2n1 [TEGOBUVIR]	–
